Results from patent US20220233556A1, “COMPOSITIONS AND METHODS FOR TREATING OPHTHALMIC CONDITIONS” (Medicon Pharmaceuticals, Inc., priority 2017, published 2022).

What was measured:
[1] = Rabbit ocular PK study of PS emulsion (2% PS); format: in vivo, New Zealand rabbits; conditions: 2% PS emulsion, three 25 μL eye drops; PS and its metabolites
Method: A formulation includes 2% PS; 5% Propylene glycol, 10% Mineral oil, 4% Tween 60, 4% Tween 80, 10% (2-hydroxypropyl)-β-cyclodextrin (HP-β-CD). Preparation method (2 mL scale): Oil phase: weight PS into glass vial, add propylene glycol, stir at 50° C. to obtain a clear solution. Then add mineral oil, stir to obtain a clear solution. Water phase: Dissolve HP-β-CD, […] and Tween 80 into water. Add water phase into oil phase, probe-sonicate for 5 sec, 8 times, with 5 sec intervals. Resultant emulsion is filtrated through 0.22 μm filter.
Rabbit ocular pharmacokinetic (PK) study: PS was administered to New Zealand rabbits topically to the eye; as three 25 μL eye drops, 5 min apart. Rabbits were euthanized at eight specified time points between 0.25 to 16 h, ocular tissues were dissected and PS was extracted with acetonitrile and its tissue levels as well as those of its metabolites were determined by HPLC as described (Xie G. et al., Br J Pharmacol 165:2′52-2166; 2012).

[2] = Ocular PK study of PS nanoparticles (mPEG-PLA), topical eye drops; format: in vivo, New Zealand white rabbits; parameters: AUC(0-t) / AUC0-16h, cornea / AUC0-16h, conjunctiva: concentration or dose not given beside the values; conditions: PS and its metabolites
Method: Composition: ˜3.0-3.5% PS, 96.5˜97% methoxy poly(ethylene glycol)-poly(lactide) (mPEG-PLA).
Preparation Method: Oil phase: 150 mg of PS and 1 g of PEG-PLA (Akina, Inc) were dissolved in 20 mL dichloromethane (DCM). Water phase: 365 mg of sodium cholate were dissolved in 60 ml of purified water. 5 mL of the oil phase was gently added into 15 mL of the water phase in a 50 mL Eppendorf conical tube. To create an emulsion, we used robe sonication for 2 min at 75% output (Branson 150, Fisher Scientific™, USA); the watt output was 12-13. The emulsion was transferred into a 100 mL beaker and stirred overnight at 600 rpm in a chemical hood until the DCM was fully evaporated. This was followed by centrifugation at 14,000 rpm for 1 h (Dupont, RC-5C). Then, the supernatant was transferred to another tube into which 3 mL of PBS were added to resuspend the nanoparticles. The nanoparticle solution was centrifuged for 6-7 seconds to remove aggregates. This supernatant was the final preparation.
Ocular PK study: PS formulated in nanoparticles as above was administered topically as eye drops to New Zealand white rabbits. The biodistribution of PS in ocular tissues at the indicated time points post administration was determined by HPLC.

[3] = system: Con A-induced dry eye; test: Con A-induced dry eye disease (DED) in rabbits: TBUT, tear osmolarity, STT, tear lactoferrin; format: in vivo, New Zealand White (NZW) rabbits; conditions: 1 week of treatment, comparison with ophthalmic NSAIDs (FIG. 5)
Method: Con A was injected under ultrasound guidance into all the lacrimal glands and the success of the injection was verified by a post-injection ultrasound image (see FIG. 1 and FIG. 2). […] This variation explains why the blind injections recommended in the original method are often unsuccessful. This was confirmed by mixing the Con A solution with methylene blue and tracking its course after injection. In about ⅓ of the cases, Con A ended up outside the gland.
Four parameters of efficacy were evaluated instead of the usual one or two. They include (a) the tear break up time (TBUT), determined using 0.2% fluorescein over the eye and recording the time taken to develop black dots, lines or obvious disruption of the fluorescein film; (b) tear osmolarity, measured using TearLab Osmolarity Test and following the manufacturer's instructions (TearLab Corp., San Diego, Calif.); (3) Schirmer tear test (STT), determined using Schirmer strips (EagleVision, Denville, N.J.) inserted between the cornea and the palpebral conjunctiva at the mid-point of the lower lid and measuring the length of moistened strip at 5 min; and (4) tear lactoferrin levels measured by ELISA kit (MyBiosource, San Diego, Calif.) following the instructions of the manufacturer. All four have been used in clinical practice and correlate with the clinical activity of the disease. The STT is the least reliable and, as result, it is clinically used less than half as frequently as TBUT.
The injections of Con A to the lacrimal glands were repeated weekly as needed. When longer than a 1-week periods of study are needed, repeat injections prolong dry eye for at least 3 weeks, making the originally acute model chronic.
PS Suppresses Con A—Induced Dry Eye in Rabbits. The effect of PS on dry eye was determined in New Zealand White (NZW) rabbits, 2-3 kg (Charles River Labs, Waltham, Mass.). These rabbits were housed singly in rooms with strict temperature (70±5° F.) and humidity (45±5%) control and acclimated for at least 2 weeks prior to induction of dry eye by injection of Con A as above. NZW rabbits with Con A-induced dry eye (three sets of injections) were treated with PS formulated as nanoparticles and administered topically as eye drops 3×/day for 21 days, starting on the day of Con A injection. […] Similar results were obtained on days 5 and 14 (data not shown). […]
The efficacy of lower concentrations of PS. The efficacy of lower concentrations of PS, 0.1% and 0.2% in DED, was also evaluated. The same animal model (rabbits with Concanavalin A-induced DED) was used. The same methodology described herein was followed, except that PS was administered as two eye drops per eye (˜25 μL each) four times a day. PS was formulated in: 10% (2-hydroxypropyl)-β-cyclodextrin, 4% Tween 80, 2.5% Vitamin E TPGS, 1.4% polyvinyl alcohol (13,000-26,000 molecular weight), 0.001% polyquad, as described herein. The Table below summarizes the corresponding findings: […]

[4] = system: PGE2; test: PGE2 levels in tears and cornea of rabbits (ELISA); format: in vivo; conditions: rabbits with Con A-induced DED, administered once topically, 1 h later
Method: FIGS. 9A and 9B illustrate that PS preserves the levels of PGE2 in tears and the cornea. In FIG. 9A, PGE2 levels were determined by ELISA in tears collected on day 7 from naïve rabbits and rabbits with Con A-induced DED treated for 1 week with vehicle or PS. In FIG. 9B, PGE2 levels were further examined. Upper panel: PGE2 levels in the tears of naïve rabbits and rabbits with Con A-induced DED treated for 1 h with PS or ketorolac as in Methods. Lower panel: PGE2 levels in the corneal tissue of naïve rabbits and rabbits with Con A-induced DED treated for 1 week with vehicle or PS or ketorolac or diclofenac. n=8 eyes/group. Values=mean±SEM.
It was determined that the levels of PGE2 in rabbit tears in three groups of rabbits, naïve and those with Con A-induced DED that were treated for 1 week either with PS or vehicle.
In an acute experiment, administered once topically to the eyes of four groups of rabbits with Con A-induced DED was one of the following: vehicle, PS, ketorolac or diclofenac; the latter two are NSAIDs used for the treatment of ocular inflammation and pain. It was determined that the levels of PGE2 in the cornea of these rabbits obtained 1 h later as well as in the corneas of naïve rabbits.

[5] = system: corneal sensitivity; test: Corneal touch threshold (CTT) assay, Cochet-Bonnet aesthesiometer; format: in vivo, rabbits; conditions: commercially available form, one eye drop
Method: FIGS. 10A and 10B illustrate the ocular analgesic effect of PS. FIG. 10A: One drop of PS 0.5%, vehicle, or lidocaine was applied to one eye of rabbits (n=4/group) and the corneal touch threshold (CTT) was determined using an Eshesiometer. Vehicle had no effect on CTT (not shown; overlaps with the 0 value horizontal line). Values=mean±SEM. FIG. 10B: PS 0.5% in formulations differing in pH as indicated produced different analgesic responses in rabbits. The areas under each curve (AUC), indicted in the figure, that quantify these responses vary by as much as >5 fold. Values are the average of 2; all were within 11% of each other.
FIGS. 11A and 11B illustrates the effect of various concentrations of PS on corneal sensitivity determined by the corneal touch threshold (CTT) assay. The CTT score is expressed as length of filament. Measurements were performed at the indicated time points after a single application of PS as an eye drop. Rabbits with normal or dry eyes were studied (n=6 eyes per group). Dry eyes were induced by Concanavalin A injection as described in the text. The % PS content in each study is shown. The numbers in parentheses indicate the corresponding value of the area under the curve. Values=mean±SEM.
FIGS. 12A and 12B illustrate the effect of various drugs on corneal sensitivity determined by the corneal touch threshold (CTT) assay described herein. Each drug was used in its commercially available form; one eye drop of each was applied. The numbers in parentheses indicate the corresponding value of the area under the curve. Values=mean±SEM.
The analgesic effect of PS was examined on the surface of the eye by determining the corneal touch threshold (CTT) using the Luneau Cochet-Bonnet Aesthesiometer (Western Ophthalmics, Lynwood, Wash.) an adjustable nylon monofilament with a defined diameter, which is applied in different lengths to the center of the cornea.
In this embodiment, the composition of the PS preparation was: 0.5% PS, 18% (2-hydroxypropyl)-β-cyclodextrin (HP-β-CD), 1-4% Tween 80. Preparation Method: HP-β-CD was dissolved in purified water maintained in a 50° C. water bath. PS was added into this solution and kept at 50° C. overnight with stirring at 500 rpm until PS was fully dissolved. Tween 80 was added into the PS HP-β-CD solution, which was then centrifuged at 3000 rpm for 10 min to remove undissolved particles. The supernatant was collected and pH was adjusted to the desired value using a NaOH solution. The analgesic effect of PS was examined as above.
The effect of PS and other compounds on corneal sensitivity was determined in rabbits with normal or dry eyes using the CTT assay as above; DED was induced by Concanavalin A as previously described. The CTT score, expressed as filament length in mm, of normal eyes was 5.56±0.11 mm (mean±SEM for this and subsequent values) and in dry eyes 4.17±0.12 mm; the difference between the two is statistically significant (p<0.0001).

[6] = system: MMPs; test: MMP activity in the cornea of rabbits; format: in vivo; conditions: naïve rabbits, topical, 1 h
Method: FIGS. 8A and 8B illustrate that PS suppresses the levels and activity of MMPs. In FIG. 8A, the human conjunctival cells were treated with PS at 1×IC50 (TNF-α was added to the culture medium at a concentration of 10 ng/ml 2 h after PS. The levels of MMP-1 in the culture medium were determined by ELISA as in Methods (n=3). Values=mean±SEM. In FIG. 8B, two groups of rabbits with Con A-induced DED were treated with vehicle or PS for 1 week as in Methods. Naïve rabbits served as controls. MMP-9 levels in the ILG (top) and the aqueous humor (middle) were determined by ELISA. MMP activity was determined in the cornea of naïve and PS- or ketorolac-treated rabbits with Con A-induced DED as previously. n=8 eyes/group. Values=mean±SEM.
In an acute experiment, naïve rabbits were treated with either PS or ketorolac (both administered topically) for 1 h and determined the activity of MMP in the cornea. This assay determines the activity of MMPs collectively in a given tissue.

Cmax, aqueous humor [1] [μm] | Cmax, conjunctiva [1] [μm] | Cmax, cornea [1] [μm] | Cmax, conjunctiva [2] [nM] | Cmax, cornea [2] [nM] | SMILES | effect on corneal sensitivity (CTT), dry eyes [5] | effect on corneal sensitivity (CTT), normal eyes [5] | further results
1.0 | 4.2 | 8.7 | 3800 | 3600 | CC1=C(CC(=O)O)c2cc(F)ccc2/C1=C\c1ccc([S+](C)[O-])cc1 (centres unmarked) [sulindac, reference compound] | – | – | –
2.0 | 0.0 | 0.0 | 0 | 600 | CSc1ccc(/C=C2/C(C)=C(CC(=O)O)c3cc(F)ccc32)cc1 [sulindac sulfide] | – | – | –
– | – | – | – | – | O=C(O)Cc1ccccc1Nc1c(Cl)cccc1Cl [diclofenac, reference compound] | – | – | STT [3]: failed to improve; TBUT [3]: failed to improve; osmolarity [3]: failed to improve; PGE2 levels in the cornea [4]: suppressed nearly completely
– | – | – | – | – | Nc1c(CC(=O)O)cccc1C(=O)c1ccc(Br)cc1 [bromfenac, reference compound] | no analgesic effect | display analgesic efficacy | –
0.0 | 0.8 | 4.0 | 1600 | 1300 | CC1=C(CC(=O)O)c2cc(F)ccc2/C1=C\c1ccc(S(C)(=O)=O)cc1 [sulindac sulfone] | – | – | AUC0-16h, conjunctiva [1]: 3.2 µM·h; AUC0-16h, cornea [1]: 24.4 µM·h; Tmax, aqueous humor [1]: 0.0 h; Tmax, conjunctiva [1]: 2.0 h; Tmax, cornea [1]: 4.0 h; AUC0-16h, conjunctiva [2]: 7.3 µM·h; AUC0-16h, cornea [2]: 10 µM·h; Tmax, cornea [2]: 4 h
– | – | – | – | – | O=C(c1ccccc1)c1ccc2n1CCC2C(=O)O (centres unmarked) [ketorolac, reference compound] | no analgesic effect | display analgesic efficacy | STT [3]: failed to improve; TBUT [3]: failed to improve; osmolarity [3]: failed to improve; PGE2 levels in the cornea [4]: suppressed nearly completely; suppression of the activity of MMPs in the cornea [6]: failed to affect
– | – | – | – | – | CS(=O)(=O)c1cccc(C[C@H](NC(=O)c2c(Cl)cc3c(c2Cl)CCN(C(=O)c2ccc4ccoc4c2)C3)C(=O)O)c1 [Lifitegrast, lifitegrast, reference compound] | lack any ocular analgesic effect | lack any ocular analgesic effect | –
